{"source": "paper PMC11597207", "about": "“Synthesis and Anti-Inflammatory and Analgesic Potentials of Ethyl 2-(2,5-Dioxo-1-Phenylpyrrolidin-3-yl)-2-Methylpropanoate” (Pharmaceuticals, 2024)", "key": {"COX-2": {"biological_target": "T1, COX-2 (Homo sapiens, UniProt P35354)", "T1 construct": "purchased Cayman Chemical Batch No.: G5234", "T1 sequence (P35354 18-604)": "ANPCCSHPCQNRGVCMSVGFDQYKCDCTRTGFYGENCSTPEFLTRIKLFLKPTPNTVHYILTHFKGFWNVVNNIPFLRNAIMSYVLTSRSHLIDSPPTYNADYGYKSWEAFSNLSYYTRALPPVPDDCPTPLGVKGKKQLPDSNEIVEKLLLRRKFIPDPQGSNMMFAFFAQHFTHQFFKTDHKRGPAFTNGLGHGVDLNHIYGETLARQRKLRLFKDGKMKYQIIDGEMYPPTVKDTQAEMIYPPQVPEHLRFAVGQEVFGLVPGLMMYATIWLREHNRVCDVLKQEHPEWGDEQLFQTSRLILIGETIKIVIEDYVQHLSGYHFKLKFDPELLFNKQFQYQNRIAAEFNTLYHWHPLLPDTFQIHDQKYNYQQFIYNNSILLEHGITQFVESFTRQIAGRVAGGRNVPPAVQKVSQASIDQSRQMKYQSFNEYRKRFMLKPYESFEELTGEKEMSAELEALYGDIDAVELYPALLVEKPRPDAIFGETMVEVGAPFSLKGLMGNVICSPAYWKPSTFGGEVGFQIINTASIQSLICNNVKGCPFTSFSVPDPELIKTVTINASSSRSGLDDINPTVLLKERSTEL", "test": "COX-2 inhibitory assay", "assay_type": "biochemical", "description": "The inhibitory potential of synthesized MAK01 was assessed using the COX-2 inhibitory protocol. The process started with the preparation of a COX-2 enzyme solution with a concentration of 300 U per ml. The activation of the enzymes was achieved by taking and mixing 10 μL and 50 μL of the COX-2 enzyme solution and a co-factor solution, respectively. Once mixed, this solution needed to be chilled. The chilling process was carried out at 4 °C in an ice bath. The duration for this cooling phase was set at five to six minutes. […] It was made up of 0.1 M Tris buffer with a pH of 8.0, 1 mM of hematin, 0.9 mM of glutathione, and 0.24 mM of TMPD in a phosphate buffer. Following the initial steps, a test sample was prepared. The volume of this sample was fixed at 20 μL. The 20 μL sample was mixed with 60 μL COX-2 solution. After combining them, the sample and enzyme solution were kept at ambient temperature. The solution was allowed to rest for a duration from five to ten minutes. To start the reaction, 20 μL of 30 mM arachidonic acid was incorporated. Upon adding the acid, the solution was subjected to an incubation period. This period lasted for 15 min at a temperature of 37 °C. Post incubation, HCl was added to stop the reaction. The absorbance of this final solution was then measured. This was carried out using a UV–visible spectrophotometer at a specific 570 nm wavelength. Similarly, the above procedure was used for all the other concentrations of the test sample. The COX-2 enzyme inhibition was calculated as per the below equation. […] Using the below formula, the percent inhibition of each sample was calculated. % Inhibition=Abs. test sample−Abs. background/Abs. solvent blank−Abs. background×100\nUsing established protocols, the inhibitory potency of MAK01 against both COX-1 and COX-2 enzymes was assessed. This evaluation allowed for the determination of the selectivity of these new compounds. The IC50 values for both COX-1 and COX-2 were then used to calculate the selectivity index of the compound."}, "mice": {"test_system": "mice", "test": "Hot plate antinociceptive test", "assay_type": "in vivo"}}, "note": "pIC50: −log10 of the molar value. Several values for one entry are separate records, joined by “and”; a condition that tells them apart may be missing. Equal entries are not always repeated.", "data": [{"smiles": "CCOC(=O)C(C)(C)C1CC(=O)N(c2ccccc2)C1=O", "note": "(stereo not drawn) [MAK01, ethyl 2-(2,5-dioxo-1-phenylpyrrolidin-3-yl)-2-methylpropanoate]", "values": [{"measurement": "pIC50", "setting": "COX-2", "result": 3.35}, {"measurement": "COX-2 percent inhibition", "setting": "COX-2; 62.5 μg/mL", "result": 40, "unit": "%"}, {"measurement": "inhibition at 62.5 µg/mL", "setting": "COX-2; 62.5 μg/mL, read-out: COX-2 percent inhibition", "result": 40.1, "unit": "%"}, {"measurement": "COX-2 percent inhibition", "setting": "COX-2; 125 μg/mL", "result": 49, "unit": "%"}, {"measurement": "inhibition at 125 µg/mL", "setting": "COX-2; 125 μg/mL, read-out: COX-2 percent inhibition", "result": 49.4, "unit": "%"}, {"measurement": "COX-2 percent inhibition", "setting": "COX-2; 250 μg/mL", "result": 59, "unit": "%"}, {"measurement": "inhibition at 250 µg/mL", "setting": "COX-2; 250 μg/mL, read-out: COX-2 percent inhibition", "result": 58.9, "unit": "%"}, {"measurement": "COX-2 percent inhibition", "setting": "COX-2; 500 μg/mL", "result": 68, "unit": "%"}, {"measurement": "inhibition at 500 µg/mL", "setting": "COX-2; 500 μg/mL, read-out: COX-2 percent inhibition", "result": 67.8, "unit": "%"}, {"measurement": "COX-2 percent inhibition", "setting": "COX-2; 1000 μg/mL", "result": 79, "unit": "%"}, {"measurement": "inhibition at 1000 µg/mL", "setting": "COX-2; 1000 μg/mL, read-out: COX-2 percent inhibition", "result": 78.7, "unit": "%"}, {"measurement": "Selectivity for COX-2 compared to COX-1", "setting": "COX-2; from IC50 values of COX-1 and COX-2", "result": 3, "unit": "fold"}, {"measurement": "Latency Time (Seconds) on Hot Plate", "setting": "mice; dose 50 mg/kg, 30 min", "result": "10.32 ± 0.82", "unit": "s"}, {"measurement": "Latency Time (Seconds) on Hot Plate", "setting": "mice; dose 50 mg/kg, 60 min", "result": "9.96 ± 0.16", "unit": "s"}, {"measurement": "Latency Time (Seconds) on Hot Plate", "setting": "mice; dose 50 mg/kg, 90 min", "result": "9.63 ± 0.26", "unit": "s"}, {"measurement": "Latency Time (Seconds) on Hot Plate", "setting": "mice; dose 50 mg/kg, 120 min", "result": "9.49 ± 0.25", "unit": "s"}, {"measurement": "Latency Time (Seconds) on Hot Plate", "setting": "mice; dose 50 mg/kg, 150 min", "result": "9.16 ± 0.81", "unit": "s"}, {"measurement": "Latency Time (Seconds) on Hot Plate", "setting": "mice; dose 100 mg/kg, 30 min", "result": "12.16 ± 0.51 Seconds and 12.16 ± 0.51 ^ns Seconds"}, {"measurement": "Latency Time (Seconds) on Hot Plate", "setting": "mice; dose 100 mg/kg, 60 min", "result": "11.92 ± 0.71", "unit": "s"}, {"measurement": "Latency Time (Seconds) on Hot Plate", "setting": "mice; dose 100 mg/kg, 90 min", "result": "11.76 ± 0.87 ^ns Seconds"}, {"measurement": "Latency Time (Seconds) on Hot Plate", "setting": "mice; dose 100 mg/kg, 120 min", "result": "11.14 ± 0.91 ^ns Seconds"}, {"measurement": "Latency Time (Seconds) on Hot Plate", "setting": "mice; dose 100 mg/kg, 150 min", "result": "10.96 ± 0.74", "unit": "s"}, {"measurement": "Latency Time (Seconds) on Hot Plate", "setting": "mice; dose 150 mg/kg, 30 min", "result": "12.93 ± 0.45 Seconds and 12.93 ± 0.45 ^ns Seconds"}, {"measurement": "Latency Time (Seconds) on Hot Plate", "setting": "mice; dose 150 mg/kg, 60 min", "result": "12.85 ± 0.84 ^ns Seconds"}, {"measurement": "Latency Time (Seconds) on Hot Plate", "setting": "mice; dose 150 mg/kg, 90 min", "result": "12.42 ± 0.36 ^ns Seconds"}, {"measurement": "Latency Time (Seconds) on Hot Plate", "setting": "mice; dose 150 mg/kg, 120 min", "result": "11.98 ± 0.74 ^ns Seconds"}, {"measurement": "Latency Time (Seconds) on Hot Plate", "setting": "mice; dose 150 mg/kg, 150 min", "result": "11.76 ± 0.41 ^ns Seconds"}]}]}
